Usually EC50 stands for the concentration giving half of the maximal effect. As usually defined, the Emax is the maximal effect, on the per cent scale that the assay sets.

Read-outs that look alike come from different tables or passages of the source.

This note sets out measurements from patent publication US10676465B2, “GLP-1 receptor agonists and uses thereof” (Pfizer Inc., priority 2018, dated 2020).

The target in test [1] is human GLP-1R (Homo sapiens (Human), UniProt P43220, L260F). The test is described as follows: CHO GLP-1R Clone C6 - Assay 2 (HTRF cAMP agonist assay, low receptor density). Conditions: for EC50 / Assay 2 Emax (%): CHO GLP-1R Clone C6 (low receptor density); for EC50: cAMP HTRF, geometric mean; for Emax: read-out: Assay 2 Emax (%), CHO GLP-1R Clone C6 (low receptor density); for Emax / Assay 2 Emax (%): arithmetic mean, relative to saturating GLP-1 (1 μM). Background: TR-FRET usually uses a lanthanide donor and a delayed reading to cut background.
Chain of human GLP-1R (Homo sapiens (Human), UniProt P43220, L260F) (P43220 24-463 L260F): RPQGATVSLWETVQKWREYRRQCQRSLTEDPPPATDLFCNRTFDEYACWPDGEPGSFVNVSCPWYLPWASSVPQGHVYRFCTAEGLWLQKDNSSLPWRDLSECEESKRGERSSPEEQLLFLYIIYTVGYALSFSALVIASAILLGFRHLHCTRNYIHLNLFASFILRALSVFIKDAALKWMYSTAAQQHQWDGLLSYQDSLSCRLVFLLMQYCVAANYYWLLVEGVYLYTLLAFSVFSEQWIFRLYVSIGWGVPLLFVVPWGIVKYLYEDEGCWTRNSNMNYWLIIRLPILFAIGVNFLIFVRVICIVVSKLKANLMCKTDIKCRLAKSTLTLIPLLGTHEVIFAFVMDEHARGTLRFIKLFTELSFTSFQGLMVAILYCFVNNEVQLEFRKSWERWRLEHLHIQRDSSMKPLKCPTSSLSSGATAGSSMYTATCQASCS
Method: CHO GLP-1R Clone C6—Assay 2
GLP-1R-mediated agonist activity was determined with a cell-based functional assay utilizing an HTRF (Homogeneous Time-Resolved Fluorescence) cAMP detection kit (cAMP HI Range Assay Kit; Cis Bio cat #62AM6PEJ) that measures cAMP levels in the cell. The method is a competitive immunoassay between native cAMP produced by the cells and exogenous cAMP labeled with the dye d2. The tracer binding is visualized by a mAb anti-cAMP labeled with Cryptate. The specific signal (i.e. energy transfer) is inversely proportional to the concentration of cAMP in either a standard or an experimental sample.
The human GLP-1R coding sequence (NCBI Reference Sequence NP_002053.3, including naturally-occurring variant Leu260Phe) was subcloned into pcDNA5-FRT-TO and a clonal CHO cell line stably expressing a low receptor density was isolated using the Flp-In™ T-Rex™ System, as described by the manufacturer (ThermoFisher).
Cells were removed from cryopreservation, re-suspended in 40 mL of Dulbecco's Phosphate Buffered Saline (DPBS—Lonza Cat #17-512Q) and centrifuged at 800×g for 5 minutes at 22° C. The DPBS was aspirated, and the cell pellet was re-suspended in 10 mL of complete growth medium (DMEM:F12 1:1 Mixture with HEPES, L-Gln, 500 mL (DMEM/F12 Lonza Cat #12-719F), 10% heat inactivated fetal bovine serum (Gibco Cat #16140-071), 5 mL of 100× Pen-Strep (Gibco Cat #15140-122), 5 mL of 100×L-Glutamine (Gibco Cat #25030-081), 700 μg/mL Hygromycin (Invitrogen Cat #10687010) and 15 μg/mL Blasticidin (Gibco Cat # R21001). A 1 mL sample of the cell suspension in growth media was counted on a Becton Dickinson ViCell to determine cell viability and cell count per mL. The remaining cell suspension was then adjusted with growth media to deliver 1600 viable cells per well using a Matrix Combi Multidrop reagent dispenser, and the cells were dispensed into a white 384 well tissue culture treated assay plate (Corning 3570). The assay plate was then incubated for 48 hours at 37° C. in a humidified environment (95% O2, 5% CO2)
Varying concentrations of each compound to be tested (in DMSO) were diluted in assay buffer [HBSS with Calcium/Magnesium (Lonza/BioWhittaker cat #10-527F)/0.1% BSA (Sigma Aldrich cat # A7409-1L)/20 mM HEPES (Lonza/BioWhittaker cat #17-737E)] containing 100 μM 3-isobutyl-1-methylxanthin (IBMX; Sigma cat #15879). The final DMSO concentration in the compound/assay buffer mixture is 1%.
After 48 hours, the growth media was removed from the assay plate wells, and the cells were treated with 20 μL of the serially diluted compound in assay buffer for 30 minutes at 37° C. in a humidified environment (95% O2, 5% CO2). Following the 30 minute incubation, 10 μL of labeled d2 cAMP and 10 μL of anti-cAMP antibody (both diluted 1:20 in cell lysis buffer; as described in the manufacturer's assay protocol) were added to each well of the assay plate. The plates were then incubated at room temperature and after 60 minutes, changes in the HTRF signal were read with an Envision 2104 multi-label plate reader using excitation of 330 nm and emissions of 615 and 665 nm. Raw data were converted to nM cAMP by interpolation from a cAMP standard curve (as described in the manufacturer's assay protocol) and the percent effect was determined relative to a saturating concentration of the full agonist GLP-1 (1 μM) included on each plate. EC50 determinations were made from agonist dose response curves analyzed with a curve fitting program using a 4-parameter logistic dose response equation.

The target in test [2] is human GLP-1R (Homo sapiens, UniProt P43220, G168S). Kind of test: CHO GLP-1R Clone H6 - Assay 1 (HTRF cAMP agonist assay). Type of test: cell-based. The note with it: for EC50: CHO GLP-1R Clone H6, cAMP HTRF, geometric mean.
Chain of human GLP-1R (Homo sapiens, UniProt P43220, G168S) (P43220 24-463 G168S limits assumed): as the sequence (P43220 24-463 L260F) above, with G145S, F237L counted along it
Method: GLP-1R-mediated agonist activity was determined with a cell-based functional assay utilizing an HTRF (Homogeneous Time-Resolved Fluorescence) cAMP detection kit (cAMP HI Range Assay Kit; CisBio cat #62AM6PEJ) that measures cAMP levels in the cell. The method is a competitive immunoassay between native cAMP produced by the cells and exogenous cAMP labeled with the dye d2. The tracer binding is visualized by a mAb anti-cAMP labeled with Cryptate. The specific signal (i.e. energy transfer) is inversely proportional to the concentration of cAMP in either standard or experimental sample.
The human GLP-1R coding sequence (NCBI Reference Sequence NP_002053.3, including naturally-occurring variant Gly168Ser) was subcloned into pcDNA3 (Invitrogen) and a cell line stably expressing the receptor was isolated (designated Clone H6).
Cells were removed from cryopreservation, re-suspended in 40 mL of Dulbecco's Phosphate Buffered Saline (DPBS—Lonza Cat #17-512Q) and centrifuged at 800×g for 5 minutes at 22° C. The cell pellet was then re-suspended in 10 mL of growth medium [DMEM/F12 1:1 Mixture with HEPES, L-Gln, 500 mL (DMEM/F12 Lonza Cat #12-719F), 10% heat inactivated fetal bovine serum (Gibco Cat #16140-071), 5 mL of 100× Pen-Strep (Gibco Cat #15140-122), 5 mL of 100×L-Glutamine (Gibco Cat #25030-081) and 500 μg/mL Geneticin (G418) (Invitrogen #10131035)]. A 1 mL sample of the cell suspension in growth media was counted on a Becton Dickinson ViCell to determine cell viability and cell count per mL. The remaining cell suspension was then adjusted with growth media to deliver 2000 viable cells per well using a Matrix Combi Multidrop reagent dispenser, and the cells were dispensed into a white 384 well tissue culture treated assay plate (Corning 3570). The assay plate was then incubated for 48 hours at 37° C. in a humidified environment in 5% carbon dioxide.
Varying concentrations of each compound to be tested (in DMSO) were diluted in assay buffer (HBSS with Calcium/Magnesium (Lonza/BioWhittaker cat #10-527F)/0.1% BSA (Sigma Aldrich cat # A7409-1L)/20 mM HEPES (Lonza/BioWhittaker cat #17-737E) containing 100 μM 3-isobutyl-1-methylxanthin (IBMX; Sigma cat #15879). The final DMSO concentration is 1%.
After 48 hours, the growth media was removed from the assay plate wells, and the cells were treated with 20 μL of the serially diluted compound in assay buffer for 30 minutes at 37° C. in a humidified environment in 5% carbon dioxide. Following the 30 minute incubation, 10 μL of labeled d2 cAMP and 10 μL of anti-cAMP antibody (both diluted 1:20 in cell lysis buffer; as described in the manufacturer's assay protocol) were added to each well of the assay plate. The plates were then incubated at room temperature and after 60 minutes, changes in the HTRF signal were read with an Envision 2104 multi-label plate reader using excitation of 330 nm and emissions of 615 and 665 nm. Raw data were converted to nM cAMP by interpolation from a cAMP standard curve (as described in the manufacturer's assay protocol) and the percent effect was determined relative to a saturating concentration of the full agonist GLP-17-36 (1 μM) included on each plate. EC50 determinations were made from agonist dose-response curves analyzed with a curve fitting program using a 4-parameter logistic dose response equation.
Where [3] appears, read: CHO GLP-1R Clone H6, arithmetic mean, relative to saturating GLP-1 (1 μM).

On to `Cn1cnc(Cn2c(CN3CCC(c4cccc5c4OC(C)(c4ccc(Cl)cc4F)O5)CC3)nc3ccc(C(=O)O)cc32)c1` (stereo not drawn) [Example 77, 2-({4-[2-(4-chloro-2-fluorophenyl)-2-methyl-1,3-benzodioxol-4-yl]piperidin-1-yl}methyl)-1-[(1-methyl-1H-imidazol-4-yl)methyl]-1H-benzimidazole-6-carboxylic acid], for which the values for the EC50 in test [1] (read-out: Assay 2 EC50) and in test [2] were 1700 nM and 53 nM, respectively. Besides, the Emax in test [1] was 92%; in test [2] (setting [3]), 89%.

On to `CC1(c2ccc(C#N)cc2F)Oc2cccc(C3CCN(Cc4nc5ccc(C(=O)O)cc5n4C[C@@H]4CCO4)CC3)c2O1` (single isomer, unassigned) [Example 9], for which the EC50 stood at 1600 nM in test [1] (Assay 2 EC50 (nM)) and 73 nM in test [2]. The “Assay 2 Emax (%)” value in test [1] was determined as 90%. Further, the “Assay 1 Emax (%)” value in test [2] (setting [3]) was determined as 88%.

With `COCCn1cnnc1Cn1c(CN2CCC(c3cccc4c3OC(C)(c3ccc(Cl)cc3F)O4)CC2)nc2ccc(C(=O)O)cc21` (stereo not drawn) [Example 70, 2-({4-[2-(4-chloro-2-fluorophenyl)-2-methyl-1,3-benzodioxol-4-yl]piperidin-1-yl}methyl)-1-{[4-(2-methoxyethyl)-4H-1,2,4-triazol-3-yl]methyl}-1H-benzimidazole-6-carboxylic acid], the half-maximal effective concentration (EC50) came out at 97 nM in test [1] (read-out: Assay 2 EC50) and 2.8 nM in test [2]. In addition, the Emax in test [1] and in test [2] (setting [3]) was 100% each time.

With `COCc1cc(Cn2c(CN3CCC(c4cccc5c4OC(C)(c4ccc(Cl)cc4F)O5)CC3)nc3ccc(C(=O)O)cc32)[nH]n1` (stereo not drawn) [Example 68, 2-({4-[2-(4-chloro-2-fluorophenyl)-2-methyl-1,3-benzodioxol-4-yl]piperidin-1-yl}methyl)-1-{[3-(methoxymethyl)-1H-pyrazol-5-yl]methyl}-1H-benzimidazole-6-carboxylic acid], the EC50 in test [1] (read-out: Assay 2 EC50) came to 1200 nM; in test [2], 73 nM. The maximal response (Emax) in test [1] was determined as 94%; in test [2] (setting [3]), 89%.

With `CC1(c2ccc(Cl)cc2F)Oc2cccc(C3CCN(Cc4nc5ccc(C(=O)O)cc5n4CCN4CCOC4=O)CC3)c2O1` (stereo not drawn) [Example 46, 2-({4-[2-(4-chloro-2-fluorophenyl)-2-methyl-1,3-benzodioxol-4-yl]piperidin-1-yl}methyl)-1-[2-(2-oxo-1,3-oxazolidin-3-yl)ethyl]-1H-benzimidazole-6-carboxylic acid], the EC50 worked out at 57 nM in test [1] (read-out: Assay 2 EC50) and 5.2 nM in test [2]. Besides, the Emax in test [1] was found to be 96%; in test [2] (setting [3]) it was 95%.

As to `CC(=O)N(C)CCn1c(CN2CCC(c3cccc4c3OC(C)(c3ccc(Cl)cc3F)O4)CC2)nc2ccc(C(=O)O)cc21` (stereo not drawn) [Example 43, 1-{2-[acetyl(methyl)amino]ethyl}-2-({4-[2-(4-chloro-2-fluorophenyl)-2-methyl-1,3-benzodioxol-4-yl]piperidin-1-yl}methyl)-1H-benzimidazole-6-carboxylic acid], the EC50 is 65 nM in test [1] (read-out: Assay 2 EC50) and 3.5 nM in test [2]. Besides, the Emax in test [1] is 86%; in test [2] (setting [3]), 88%.

For `CN(C)S(=O)(=O)CCn1c(CN2CCC(c3cccc4c3OC(C)(c3ccc(Cl)cc3F)O4)CC2)nc2ccc(C(=O)O)cc21` (stereo not drawn) [Example 47, 2-({4-[2-(4-chloro-2-fluorophenyl)-2-methyl-1,3-benzodioxol-4-yl]piperidin-1-yl}methyl)-1-[2-(dimethylsulfamoyl)ethyl]-1H-benzimidazole-6-carboxylic acid], the EC50 was 1400 nM in test [1] (read-out: Assay 2 EC50) and 42 nM in test [2]. For the same compound, the Emax is 76% in test [1] and 75% in test [2] (setting [3]).

As for `CC1(c2ccc(C#N)cc2F)Oc2cccc(C3CCN(Cc4nc5ccc(C(=O)O)cc5n4Cc4ncco4)CC3)c2O1` (stereo not drawn) [Example 98, ammonium 2-({4-[2-(4-cyano-2-fluorophenyl)-2-methyl-1,3-benzodioxol-4-yl]piperidin-1-yl}methyl)-1-(1,3-oxazol-2-ylmethyl)-1H-benzimidazole-6-carboxylate], the figures for the EC50 in test [1] (read-out: Assay 2 EC50) and in test [2] were 440 nM and 50 nM, respectively. For the same compound, the maximum response (Emax) in test [1] is 95%; in test [2] (setting [3]), 97%.

For the compound `CCn1cncc1Cn1c(CN2CCC(c3cccc4c3O[C@](C)(c3ccc(Cl)cc3F)O4)CC2)nc2ccc(C(=O)O)cc21` (single isomer, unassigned) [Example 18, Ammonium 2-({4-[2-(4-chloro-2-fluorophenyl)-2-methyl-1,3-benzodioxol-4-yl]piperidin-1-yl}methyl)-1-[(I-ethyl-1H-imidazol-5-yl)methyl]-1H-benzimidazole-6-carboxylate], the “Assay 2 Emax (%)” value in test [1] is listed as 87%. The EC50 worked out at 1000 nM in test [1] (read-out: Assay 2 EC50) and 210 nM in test [2].

On to `CCn1ccnc1Cn1c(CN2CCC(c3cccc4c3OC(C)(c3ccc(Cl)cc3F)O4)CC2)nc2ccc(C(=O)O)cc21` (stereo not drawn) [Example 51, 2-({4-[2-(4-chloro-2-fluorophenyl)-2-methyl-1,3-benzodioxol-4-yl]piperidin-1-yl}methyl)-1-[(1-ethyl-1H-imidazol-2-yl)methyl]-1H-benzimidazole-6-carboxylic acid], for which the half-maximal effective concentration (EC50) in test [1] (read-out: Assay 2 EC50) turned out to be 280 nM; in test [2], 19 nM. Besides, the maximal response (Emax) in test [1] is 81%; in test [2] (setting [3]) it was 80%.

Take `COCCn1c(CN2CCC(c3cccc4c3OC(C)(c3ccc(Cl)cn3)O4)CC2)nc2ccc(C(=O)O)cc21` (stereo not drawn) [Example 91, ammonium 2-({4-[2-(5-chloropyridin-2-yl)-2-methyl-1,3-benzodioxol-4-yl]piperidin-1-yl}methyl)-1-(2-methoxyethyl)-1H-benzimidazole-6-carboxylate]: the EC50 in test [1] (read-out: Assay 2 EC50) was over 20000 nM; in test [2], 14000 nM. Also, the maximal response (Emax) in test [2] (setting [3]) was 100%.

Regarding `CC1(c2ccc(Cl)cc2F)Oc2cccc(C3CCN(Cc4nc5ccc(C(=O)O)cc5n4CC4(O)CCC4)CC3)c2O1` (stereo not drawn) [Example 72, 2-({4-[2-(4-chloro-2-fluorophenyl)-2-methyl-1,3-benzodioxol-4-yl]piperidin-1-yl}methyl)-1-[(1-hydroxycyclobutyl)methyl]-1H-benzimidazole-6-carboxylic acid], the values for the EC50 in test [1] (read-out: Assay 2 EC50) and in test [2] were 310 nM and 14 nM, respectively. The Emax came to 80% in test [1] and 76% in test [2] (setting [3]).

With `COCCn1c(CN2CCC(c3cccc4c3OC(C)(c3ccc(F)c(F)c3)O4)CC2)nc2ccc(C(=O)O)cc21` (stereo not drawn) [Example 41, 2-({4-[2-(3,4-difluorophenyl)-2-methyl-1,3-benzodioxol-4-yl]piperidin-1-yl}methyl)-1-(2-methoxyethyl)-1H-benzimidazole-6-carboxylic acid], the EC50 in test [1] (Assay 2 EC50 (nM)) came to 2000 nM; in test [2], 91 nM. The Emax in test [1] stood at 74%; in test [2] (setting [3]) it was 78%.

For the compound `COCCn1c(CN2CCC(c3cccc4c3OC(C)(c3ccc(C(F)(F)F)cc3)O4)CC2)nc2ccc(C(=O)O)cc21` (stereo not drawn) [Example 40, 1-(2-methoxyethyl)-2-[(4-{2-methyl-2-[4-(trifluoromethyl)phenyl]-1,3-benzodioxol-4-yl}piperidin-1-yl)methyl]-1H-benzimidazole-6-carboxylic acid], the results for the EC50 in test [1] (read-out: Assay 2 EC50) and in test [2] were 130 nM and 14 nM, respectively. The maximal response (Emax) in test [1] is 73%; in test [2] (setting [3]) it was 88%.
